Assay results from patent US7795227B2, “Compounds and methods for treating seizure disorders” (Wisconsin Alumni Research Foundation, priority 2004, dated 2010).
Several values for one entry are separate records, joined by “and”; a condition that tells them apart may be missing. Equal values may be shown once. Entries after “also recorded” stand apart in the source; their conditions may differ.

How the values were obtained:
[1] = tested on: rat hippocampal slices (CA3 synchronized burst discharges); assay: Synchronized bursting induced by elevated [K+]o in hippocampal slices, CA3 extracellular recording; type: cell-based
Protocol: In these experiments, postnatal day 14 to 35 male Sprague-Dawley rats were anesthetized and decapitated. Brains were removed and transferred to ice cold artificial cerebrospinal fluid (ACSF), comprising 124 mM NaCl, 5 mM KCl, 1.25 mM NaH2PO4, 1.5 mM MgSO4, and 26 mM NaHCO3, supplemented with 10 mM glucose), which was continuously bubbled with 95% O2 and 5% CO2. Transverse hippocampal slices (˜400 microns) were prepared on a Leica VT1000s vibratome (Wetzlar Germany). The slices were allowed to recover for 1 hour at room temperature and were then transferred to an interface recording chamber at 34° C. in ACSF with 7.5 mM [K^+]o. Extracellular recordings were made from the CA3 region with an Axioclamp 2B (Axon Instruments, Forest City, Calif.) using a glass microelectrode filled with 150 mM NaCl. Data were recorded and analyzed using PClamp8 (Axon Instruments).
Synchronized bursting was induced by incubating hippocampal slices in ACSF supplemented with to a final concentration of 7.5 mM [K^+]o, Baseline recordings were obtained after exposure to elevated [K^+]o for 1 hour and the burst frequency had stabilized.
The reduction in burst frequency is shown in graphical form in FIG. 7.
The effects of glucose deprivation on synchronized burst discharges were examined in rat hippocampal slices ex corpora using the methods described in Example 2. Spontaneous synchronized bursts were recorded in CA3 in ACSF containing 10 mM glucose supplemented with 7.5 mM [K^+]o for ˜1 hr, and then in glucose-free ACSF supplemented with 10 mM lactate or 10 mM pyruvate. […] The interburst interval increased to 24 seconds when the slice was exposed to glucose-free ACSF supplemented with 10 mM lactate, indicating an anticonvulsant effect of glucose deprivation.

[2] = tested on: kindled seizures evoked by perforant path stimulation; assay: Kindling model of temporal lobe epilepsy, perforant path stimulation; type: in vivo, rat
Source text: In the kindling model, repeated activation of neural pathways in vivo induces progressive electrographic and behavioral seizures, permanent increases in susceptibility to additional seizures, and eventually spontaneous seizures (Goddard et al., 1969, Experimental Neurology 25: 295-330; Pinel, 1978, Experimental Neurology 58: 190-202; Wada et al., 1975, Canadian Journal of Neurological Sciences 2: 477-492; Sayin et al. 2003, Journal of Neuroscience 23: 2759-2768). Kindling has become the most extensively studied experimental model of epilepsy (McNamara, 1999, Nature 399: A15-22). In a typical kindling protocol, periodic stimulation delivered once or twice daily gradually evokes an increasing synchronous electrical afterdischarge (AD) or electrographic seizure accompanied by a behavioral seizure. […] Kindling can be induced by electrical or chemical activation of a variety of neural pathways in a range of species that include amphibians, mammals, and primates (Morrell and Tsuru, 1976, Electroencephalography and Clinical Neurophysiology 40: 1-11); Wada and Mizoguchi, 1984; Epilepsia 25: 278-287). Because kindling induces permanent alterations in the brain and can be evoked in a range of species by a variety of stimuli, it has been regarded as a phenomenon of long-term brain plasticity as well as a model of temporal lobe epilepsy. The behavioral features of brief repeated kindled seizures evoked by limbic stimulation resemble human partial complex seizures with secondary generalization. In the early stages of limbic kindling in rodents, each stimulation evokes an AD accompanied by a brief partial seizure, which progresses to stimulus-evoked secondary generalized seizures. This feature is an example of the progressive functional alterations induced by kindling that are epileptogenic.
Adult male Sprague-Dawley rats (weighing between 250-350 g, obtained from Harlan, Madison, Wis.) were anesthetized with ketamine (80 mg/kg intramuscularly) and xylazine (10 mg/kg intramuscularly), and were stereotactically implanted with an insulated stainless steel bipolar electrode for stimulation and recording. The electrode was implanted in the perforant path (8.1 mm posterior, 4.4 mm lateral, 3.5 mm ventral with respect to bregma), and was fixed to the skull with acrylic. After a two-week recovery period following electrode placement, unrestrained, awake, implanted rats received twice-daily kindling stimulation (5 days per week) with a one-second train of 62-Hertz (Hz) biphasic constant current 1.0-millisecond (ms) square wave pulses to induce kindled seizures. The electroencephalogram was recorded from the bipolar electrode, which was switched to the stimulator for the delivery of kindling stimulation. On the first day of stimulation, each rat received a stimulus train of 500 microAmperes (μA). If an AD was evoked, this intensity was used in subsequent stimulations. If no AD was evoked, the stimulation intensity was increased in a sequence of 500, 700, 900, 1000, 1100, 1200, 1300 and 1400 μA until an AD was evoked. The intensity that initially evoked AD was used for subsequent stimulations. […] If AD was evoked by 3 consecutive stimulations at a given intensity, the stimulation intensity was then decreased by 100 μA decrements. At stimulation intensities below 500 μA, the intensity was decreased in 30 μA decrements. These stimulation procedures deliver stimulation at the lowest intensity required to evoke an AD (Sutula and Steward, 1986, Journal of Neurophysiology 56: 732-746; Cavazos et al., 1991, Journal of Neuroscience 11: 2795-2803).
The anticonvulsant and antiepileptic effects of 2-DG were confirmed in rats that experienced kindled seizures evoked by perforant path stimulation according to the protocol noted above. […]

[3] = tested on: neuropathic pain (mechanical allodynia); assay: Loose sciatic nerve ligation model of neuropathic pain, Von Frye filament test; type: in vivo, rat
Protocol: The effects of 2-deoxy-D-glucose (2-DG), which has acute anticonvulsant properties in hippocampal slices and prevents the consequences of repeated evoked network synchronization in the kindling model of epilepsy, were evaluated for treatment of neuropathic pain. The effects of 2-DG were examined in the loose sciatic nerve ligation rat model of neuropathic pain. […] Effects of 2-DG on neuropathic pain were assessed by measurement of hindlimb withdrawal latency to mechanical stimulation and development of mechanical allodynia according to standardized methods.
Male Sprague-Dawley rats (Harlan, 250-350 g) were behaviorally tested by measuring hindlimb withdrawal latency in response to mechanical stimulation of the hindlimb with standardized Von Frye filaments of increasing diameter, in order to verify that all animals initially had normal responses prior to surgical procedures and treatments. In the Von Frye method, animals are placed on a wire mesh floor, and the hindlimb is stroked with standardized filaments of increasing diameter until withdrawal is observed. The size of the filament evoking withdrawal is the Von Frye score. Withdrawal to smaller filaments indicates hyperalgesia, or mechanical allodynia when normally innocuous filaments produce withdrawal, and are regarded as measures of pain. Baseline withdrawal scores were used to assess effects of sciatic ligation and treatment with 2-DG.
After obtaining baseline measurements, animals were then anesthetized with a combination of ketamine 70 mg/kg IP and xylazine […]. The sciatic nerve was exposed at mid-thigh level by blunt dissection through the biceps femoris muscles. […] The incision was closed in layers, and during the immediate post-operative period the animals were monitored for signs of behavior that would signify unexpected and undesirable reaction to the surgical procedure (loss of weight or appetite, lack of grooming or loss of locomotion).
Hindlimb withdrawal responses were assessed postoperatively to verify that mechanical allodynia and hyperalgesia were induced as a result of the surgical ligation. […]

**Q.** What does the source list for `O=CC[C@@H](O)[C@H](O)[C@H](O)CO` [2-DG, 2-deoxy-D-glucose]?
**A.** Burst frequency (epileptic bursts) after bath application ([1]; 1 mM 2-DG, 7.5 mM [K+]o, FIG. 4B/4C): reduction in epileptic bursts; also recorded: decreased progressively; Persistence of anticonvulsant effect after return to ACSF without 2-DG ([1]; ACSF with 7.5 mM [K+]o, FIG. 5B): ≤ 60 min; Duration of anticonvulsant effects after stopping 2-DG ([2]; 250 mg/kg twice daily for 3 months, twice daily stimulation continued): approximately 8 weeks; Effective dose in rats ([2]; intraperitoneal or subcutaneous administration): 250 mg/kg; Time AD threshold remained elevated after stopping twice daily 2-DG ([2]; kindled rat, 250 mg/kg IP): ≤ 6 weeks; Effect on AD threshold compared to saline controls ([2]; rats n=15 vs saline n=12, p<0.001 ANOVA, FIG. 2A): increased the AD threshold; ADs to Class 4 ([2]; rats, 2-DG 250 mg/kg IP 30 minutes before stimulation): 20.9 +/− 4.0 ADs; ADs to Class 5 (first Class V generalized tonic clonic seizure) ([2]; rats, 2-DG 250 mg/kg IP 30 minutes before stimulation, n=11, p<0.03 vs saline): 27.7±6.0 ADs and 27.7 +/− 6.0 ADs; ADs to Class 3 ([2]; rats, 2-DG 250 mg/kg IP 30 minutes before stimulation, number of afterdischarges to reach seizure class): 16.7 +/− 3.1 ADs; AD threshold during repeated 2-DG administration ([2]; single kindled rat, 250 mg/kg IP, from 200 μA, about 2-3 weeks of twice daily stimulation): ~1500 μA; AD threshold after restarting 2-DG ([2]; single kindled rat, FIG. 3, 250 mg/kg IP, rose from ~200 μAmps during 2-3 weeks): 1500 μAmps; Progressive reduction in AD threshold with repeated ADs ([2]; single rat, FIG. 3, 250 mg/kg IP prior to each stimulation, after the third evoked AD): appeared to prevent the progressive reduction in AD threshold; Day of administration after which pain-reducing effects diminished or were extinguished ([3]; 250 mg/kg IP): 4 to 5 days and 4 days; Motor or behavioral impairments ([3]; 250 mg/kg IP): did not result in any apparent motor or behavioral impairments; Mechanical allodynia (Von Frye score) compared to saline ([3]; 250 mg/kg IP 30 minutes prior to testing, n=10, p=0.044 day 1, p<0.001 day 2): acutely reduced mechanical allodynia

**Q.** With `O=C(O)CI` [iodoacetate, reference compound] as the compound, how does the “Synchronized bursting in presence of iodoacetate” value ([1]; 200 uM iodoacetate, ACSF with 10 mM glucose or 10 mM lactate, FIGS. 6 and 7) read?
**A.** Its value is “reduced synchronized bursting”.

**Q.** What about the “Reduction in epileptic bursts with lactate as alternative energy source” value ([1]; iodoacetate, lactate provided, FIG. 7) of the same compound?
**A.** Its value is “persists”.

**Q.** Which Interburst interval ([1]; glucose-free ACSF with 10 mM substitute energy source, 7.5 mM [K+]o, baseline in 10 mM glucose ~3.8 seconds) does the source give for `CC(O)C(=O)O` (stereo not drawn) [lactate] here?
**A.** Its Interburst interval is 24 s.
